Laboratory results published in ChEMBL document CHEMBL5725403, “Compounds and pharmaceutical compositions thereof for the treatment of inflammatory disorders” (2017).

Target: Autotaxin (Homo sapiens, UniProt Q13822)
Assay: Human ENPP2 (hENPP2) Assay: Compound IC50 values are determined in a hENPP2 (UniProtKB/SwissProt Sequence ref Q13822) biochemical assay using LPC as substrate. […] The enzyme is diluted in 50 mM Tris-HCl pH 8.5, 500 mM NaCl, 5 mM KCl, 10 mM CaCl2, 0.1% fatty acid free BSA in a total volume of 10 μL. the reaction is started by the addition of 10 μL of 150 μM LPC (palmitoyl 16:0) diluted in the same buffer as described above and the mixture is incubated at 37° C. for 30 min. The reaction is terminated and choline quantified by the addition of a 25 μL of a mixture containing 0.6 U/mL of choline oxidase, 0.6 U/mL of peroxydase, 1.8 mM TOOS, 1.2 mM amino-antipyrine, 20 mM EGTA (stop-developer solution) diluted in the buffer described above. […] is read on the Envision after an incubation of 30 min at room temperature (Excitation 555 nm, excitation light=70%).

`CCc1nc2ccc(C3CCN(S(C)(=O)=O)CC3)cn2c1N(C)c1nc(-c2ccc(F)cc2)c(Br)s1` was tested, and the IC50 was > 1 µM.
